Series [1] in a line: Stability of the trihydrate form stored in bulk in a GMP storage facility. The class given is physicochemical. The conditions noted are these: room temperature, RH >30%, up to 11 years. As for the experimental part: The trihydrate form was evaluated for stability with regard to purity and strength over a time period of up to 11 years, by storing it in a GMP facility under controlled conditions of temperature and relative humidity (temperature=room temperature and relative humidity >30%).

Series [2] can be described thus: Bulk stability under stressed conditions, one or two weeks. In kind it is physicochemical. As to conditions: all temperatures and humidities tested, one week or two weeks. As for the experimental part: Bulk Stability Under Stressed Conditions: About 20-30 mg of the trihydrate form of the dihydrochloride salt was weighed into HPLC vials and stressed at 25° C. and 60% relative humidity (open), 40° C. and 75% relative humidity (open), and 60° C. (closed) for one week and for two weeks.

The nature of series [3]: Bulk stability in very high humidity, one week. The class given is physicochemical. Here is the method:
Bulk Stability in Very High Humidity: The trihydrate form of the dihydrochloride salt was stressed at 25° C. and 97% relative humidity (open), 40° C. and 96% relative humidity (open), and 60° C. and 96% relativity humidity (open) for one week.

The conditions of series [4]: for Resulting Form: slurry, antisolvent Water, ambient, 3 weeks. As for the experimental part: Noncompetitive Slurry Experiments for Polymorph Screening: Noncompetitive slurry experiments were performed as a supplemental polymorph screening method. When suspensions of a polymorphic material are prepared, any polymorphic form with a lower solubility (more thermodynamically stable form) can nucleate. The nucleated forms can convert all the residual solids to the nucleated form via solvent-mediated phase transition. Suspensions of the isolated Form I were prepared by adding excess solid to several different solvent systems. The suspensions were stirred vigorously at ambient temperature for 3 weeks. The remaining solids were collected by vacuum filtration and analyzed by powder X-ray diffraction to determine if any changes in the crystalline form of the solids occurred.

The nature of series [5]: 12-month stability of the anhydrous form at controlled temperature and humidity (HPLC, water content). The class given is physicochemical. As to conditions: 25° C./60% RH. Here is the method:
The dihydrochloride salt, anhydrous form of (3S, 4R, 3′R)-6-[4-(4-amino-5-chloro-2-methoxy-benzoylamino)-3-methoxy-piperidin-1-yl]-hexanoic acid 1-azabicyclo[2.2.2]oct-3′-yl ester, was placed in stability chambers with temperature and humidity controlled, for up to 12 months. The temperature was set at 25° C., and the relative humidity was set at 60%. The samples were assayed at time zero, then at 3, 6, 9, and 12 months using an HPLC method. The HPLC conditions were as follows:
Column: Inertsil C8-3, 250 mm length, 3 mm diameter, 5 um particle size
Mobile Phase A: 2000 mL water+3 mL formic acid
Mobile Phase B: 1000 mL methanol+3 mL formic acid
Detection wavelength: 275 nm

Series [6] is described as follows: Dehydration profile by thermographic analysis (TGA). In kind it is physicochemical. The conditions noted are these: 25° C. to 250° C. Here is the method:
Thermographic analysis (TGA) curves were generated for the anhydrate and trihydrate using a Perkin Elmer TGA-7. Three to five milligram samples were weighed into aluminum sample pans and run under dry nitrogen at 5° C./minute from 25° C. to 250° C. The data were exported to Excel to enable plotting.
The two differ in the appearance of the dehydration mass loss observed for the trihydrate and absent as expected from the anhydrate. Dehydration of the trihydrate started immediately upon start of heating and was complete by approximately 50° C. Complete dehydration below 100° C. is consistent with the assignment of the trihydrate as a channel type hydrate.

Where a name gives a salt, the structure may show the parent alone. Read-outs that look alike come from different tables or passages of the source.

`COc1cc(N)c(Cl)cc1C(=O)N[C@@H]1CCN(CCCCCC(=O)O[C@H]2CN3CCC2CC3)C[C@@H]1OC` [Compound 1, (3S, 4R, 3′R)-6-[4-(4-amino-5-chloro-2-methoxy-benzoylamino)-3-methoxy-piperidin-1-yl]-hexanoic acid 1-azabicyclo[2.2.2] oct-3′-yl ester di-hydrochloride salt]: the “Stability under GMP storage” value in series [1] is listed as “stable”. Further, the “Physical and chemical stability” value in series [2] was “both physically and chemically stable”; in series [3] (25° C. and 97% relative humidity (open)), “both physically and chemically stable”; in series [3] (temperature elevated to 40° C. or 60° C., 96% relative humidity (open)), “underwent liquescence”.

As to `COc1cc(N)c(Cl)cc1C(=O)N[C@@H]1CCN(CCCCCC(=O)O[C@H]2CN3CCC2CC3)C[C@@H]1OC` [Form I, (3S, 4R, 3′R)-6-[4-(4-amino-5-chloro-2-methoxy-benzoylamino)-3-methoxy-piperidin-1-yl]-hexanoic acid 1-azabicyclo[2.2.2]oct-3′-yl ester], the “Thermodynamic stability among anhydrous forms” value in series [4] (based on the outcome of the slurry experiments) was “most thermodynamically stable anhydrous form”. Further, the “Resulting Form” value in series [4] (solvent 1-Propanol), in series [4] (solvent Acetonitrile), in series [4] (solvent Ethanol), in series [4] (solvent Methanol) and in series [4] (solvent Water) was “Form 1” throughout.

For the compound “(3S, 4R, 3′R)-6-[4-(4-amino-5-chloro-2-methoxy-benzoylamino)-3-methoxy-piperidin-1-yl]-hexanoic acid 1-azabicyclo[2.2.2]oct-3′-yl ester”, the “Purity HPLC (Area %)” value is 99.3 Area % in series [5] (0 months); 99.2 Area % in series [5] (3 months); 99.3 Area % in series [5] (6 months); 99.2 Area % in series [5] (9 months); 99.3 Area % in series [5] (12 months). In addition, the “Water Content” value in series [5] (0 months) is 0.45%; in series [5] (3 months) it was 6.47%; in series [5] (6 months) it was 8.47%; in series [5] (9 months), 8.20%; in series [5] (12 months) it was 8.43%. Also, in series [5] (due to increase in water content over 6 to 12 months), the “Decrease in strength of the active ingredient” value is “approximately 8%”. For the same compound, the “Dehydration mass loss (TGA)” value in series [6] is “absent”.

Values taken from patent US20210355116A1, “METHODS OF PRODUCING NARONAPRIDE TRIHYDRATE” (Renexxion, LLC, priority 2018, published 2021).
